Usually MIC stands for the least concentration at which growth counts as inhibited. A high value points to a less susceptible organism.

Assay in all cases: ≥ marks a high value that may be exact or a test limit, other limits are often not marked, values filed in µg/mL are converted to µM
Test [1] has as its system Staphylococcus aureus C623.
Test [2] concerns Pseudomonas aeruginosa H103.
Test [3] relates to Enterococcus faecium mic80.
For test [4], the system named is Candida albicans C627.
Test [5] deals with Pseudomonas aeruginosa 213.
Test [6] deals with Staphylococcus aureus ATCC 25923.
Test [7] relates to Escherichia coli ESBL 63103.
The test system of test [8] is Pseudomonas aeruginosa LES400.
Test [9] deals with Pseudomonas aeruginosa Ps4.
Test [10] deals with Escherichia coli SBS 363.
In test [11] the test system is Candida albicans MDM8.
Test [12] concerns Micrococcus luteus A270.
The subject of test [13] is Salmonella enterica subsp. enterica serovar Enteritidis.
In test [14] the test system is Staphylococcus aureus ATCC 29213.
Test [15] has as its system Yersinia enterocolitica.
The subject of test [16] is Escherichia coli ATCC 25922.
Test [17] deals with Staphylococcus aureus ATCC 43300.
The subject of test [18] is Salmonella sp.
For test [19], the system named is Escherichia coli.
The subject of test [20] is Pseudomonas aeruginosa ATCC 27853.

≈ marks a conversion by molar mass, not a printed value.

On to `CC[C@H](C)[C@H](NC(=O)[C@@H](N)CCCN=C(N)N)C(=O)N[C@@H](Cc1c[nH]c2ccccc12)C(=O)N[C@@H](CCCCN)C(=O)N[C@@H](CCCN=C(N)N)C(=O)N[C@@H](Cc1c[nH]c2ccccc12)C(=O)N[C@@H](Cc1c[nH]c2ccccc12)C(=O)N[C@@H](Cc1ccccc1)C(=O)N[C@@H](CCCN=C(N)N)C(=O)O` [RIWKRWWFR], for which the MIC is 22.3 µM (≈ 32 µg/mL) in test [1]; not below 89.3 µM in test [2]; not below 44.6 µM in test [3]; not below 89.3 µM in test [4]; not below 89.3 µM in [5]; 44.6 µM (≈ 64 µg/mL) in [6]. The figures for the MIC in test [7] and in [8] were not below 44.6 µM and not below 89.3 µM, respectively.
`CC[C@H](C)[C@H](NC(=O)[C@H](CC(N)=O)NC(=O)[C@H](CCCN=C(N)N)NC(=O)[C@H](CCC(N)=O)NC(=O)[C@H](Cc1c[nH]c2ccccc12)NC(=O)[C@@H](N)Cc1ccccc1)C(=O)N[C@@H](CCCN=C(N)N)C(=O)N[C@@H](Cc1ccccc1)C(=O)N[C@@H](CCCN=C(N)N)C(=O)N[C@@H](CCCN=C(N)N)C(N)=O` [FWQRNIRFRR]: the minimum inhibitory concentration (MIC) in [9] is not below 250 µM.
Turning to `NCCCC[C@H](NC(=O)[C@H](Cc1c[nH]c2ccccc12)NC(=O)[C@@H](N)CCCCN)C(=O)N[C@@H](CCCN=C(N)N)C(=O)N[C@@H](Cc1c[nH]c2ccccc12)C(=O)N[C@@H](Cc1c[nH]c2ccccc12)C(=O)N[C@@H](Cc1c[nH]c2ccccc12)C(=O)N[C@@H](Cc1ccccc1)C(=O)N[C@@H](CCCN=C(N)N)C(=O)O` [KWKRWWWFR], the MIC in test [1] is 10.8 µM (≈ 16 µg/mL); in test [2], 21.6 µM (≈ 32 µg/mL); in [3] it was 21.6 µM (≈ 32 µg/mL); in [4], 21.6 µM (≈ 32 µg/mL); in [5] it was not below 86.6 µM; in test [6] it was 21.6 µM (≈ 32 µg/mL). In addition, the results for the MIC in [7] and in test [8] were 10.8 µM (≈ 16 µg/mL) and not below 43.3 µM, respectively.
In the case of `CC[C@H](C)[C@H](NC(=O)[C@H](CC(C)C)NC(=O)[C@H](CO)NC(=O)[C@H](CC(C)C)NC(=O)[C@H](CC(C)C)NC(=O)[C@@H](N)CO)C(=O)N[C@@H](CCCN=C(N)N)C(=O)N[C@@H](CCCCN)C(=O)N[C@@H](Cc1ccccc1)C(=O)N[C@@H](Cc1ccccc1)C(=O)N[C@H](C(N)=O)[C@@H](C)O` [SLLSLIRKFFT], the MIC was determined as 1.56 µM (≈ 2.06 µg/mL) in test [10], 1.56 µM (≈ 2.06 µg/mL) in test [11] and 0.39 µM (≈ 0.516 µg/mL) in test [12].
In test [9], `CC[C@H](C)[C@H](NC(=O)[C@H](CCCN=C(N)N)NC(=O)[C@@H](NC(=O)[C@H](CC(N)=O)NC(=O)[C@H](CCCN=C(N)N)NC(=O)[C@H](CCC(N)=O)NC(=O)[C@H](Cc1c[nH]c2ccccc12)NC(=O)[C@H](Cc1ccccc1)NC(=O)[C@@H](N)CCCN=C(N)N)[C@@H](C)CC)C(=O)N[C@@H](CCCN=C(N)N)C(=O)N[C@@H](CCCN=C(N)N)C(N)=O` [RFWQRNIRIRR] yielded an MIC not below 156 µM.
`CC[C@H](C)[C@H](NC(=O)[C@H](CCC(N)=O)NC(=O)[C@@H](N)CCCN=C(N)N)C(=O)N[C@H](C(=O)N[C@@H](CCCN=C(N)N)C(=O)N[C@@H](CCCN=C(N)N)C(=O)N[C@@H](CCSC)C(=O)N[C@@H](Cc1c[nH]c2ccccc12)C(=O)N[C@@H](CCCN=C(N)N)C(N)=O)[C@@H](C)CC` [RQIIRRMWR]: the MIC in test [13] was not below 38 µM; in test [14], more than 38 µM; in test [15] it was not below 38 µM; in [16], more than 38 µM; in test [17] it was more than 38 µM; in test [18], not below 38 µM. The compound also yielded a minimum inhibitory concentration (MIC) in [19] of 19 µM (≈ 25 µg/mL).
As to `CC[C@H](C)[C@H](NC(=O)[C@H](CC(N)=O)NC(=O)[C@H](CCCN=C(N)N)NC(=O)[C@H](CCC(N)=O)NC(=O)[C@H](Cc1c[nH]c2ccccc12)NC(=O)[C@H](Cc1ccccc1)NC(=O)[C@@H](N)CS)C(=O)N[C@@H](CCCN=C(N)N)C(=O)N[C@@H](CCCCN)C(=O)N[C@H](C(=O)N[C@@H](CCCN=C(N)N)C(=O)N[C@@H](CS)C(N)=O)C(C)C` [CFWQRNIRKVRC], in test [9], the MIC was not below 155 µM.
Take `CSCC[C@H](NC(=O)[C@H](CCCN=C(N)N)NC(=O)[C@H](CCCN=C(N)N)NC(=O)[C@@H](N)CC(N)=O)C(=O)N[C@@H](CCCCN)C(=O)N[C@@H](Cc1c[nH]c2ccccc12)C(=O)N[C@@H](CCCCN)C(=O)N[C@@H](CCCCN)C(N)=O` [NRRMKWKK]: the MIC was not below 50 µM in test [13]; more than 50 µM in test [14]; not below 50 µM in test [15]; more than 50 µM in [16]; more than 50 µM in test [17]; not below 50 µM in test [18]. Moreover, the MIC in test [19] and in test [20] was more than 50 µM in each case.
As to `CC[C@H](C)[C@H](NC(=O)[C@H](CC(N)=O)NC(=O)[C@H](CCCN=C(N)N)NC(=O)[C@@H]1CCCN1C(=O)[C@H](Cc1c[nH]c2ccccc12)NC(=O)[C@@H](N)Cc1ccccc1)C(=O)N[C@@H](CCCN=C(N)N)C(=O)N[C@@H](CCCCN)C(=O)N[C@H](C(=O)N[C@@H](CCCN=C(N)N)C(N)=O)C(C)C` [FWPRNIRKVR], in test [9], the MIC was not below 182 µM.
Turning to `CC[C@H](C)[C@H](NC(=O)[C@H](CCC(N)=O)NC(=O)[C@@H](N)CCCN=C(N)N)C(=O)N[C@@H](Cc1c[nH]c2ccccc12)C(=O)N[C@@H](Cc1c[nH]c2ccccc12)C(=O)N[C@@H](Cc1c[nH]c2ccccc12)C(=O)N[C@@H](Cc1c[nH]c2ccccc12)C(=O)N[C@@H](CCC(N)=O)C(=O)N[C@@H](CCCN=C(N)N)C(N)=O` [RQIWWWWQR], the MIC is 8.65 µM (≈ 12.5 µg/mL) in test [13]; 34.6 µM (≈ 50 µg/mL) in test [14]; 17.3 µM (≈ 25 µg/mL) in test [15]; 4.33 µM (≈ 6.25 µg/mL) in [16]; more than 34.6 µM in test [17]; 4.33 µM (≈ 6.25 µg/mL) in test [18]. In test [19], this compound came in with an MIC of 4.33 µM (≈ 6.25 µg/mL).
On to `CC[C@H](C)[C@H](NC(=O)[C@H](CCCCN)NC(=O)[C@@H](NC(=O)[C@H](CCCN=C(N)N)NC(=O)[C@H](CCCN=C(N)N)NC(=O)[C@H](CCSC)NC(=O)[C@H](CCCCN)NC(=O)[C@H](Cc1c[nH]c2ccccc12)NC(=O)[C@@H](N)CCCN=C(N)N)[C@@H](C)CC)C(=O)N[C@@H](CCC(N)=O)C(=O)N[C@@H](CCCN=C(N)N)C(N)=O` [RWKMRRIKIQR], for which the MIC was 31.8 µM (≈ 50 µg/mL) in test [13]; more than 31.8 µM in [14]; 31.8 µM (≈ 50 µg/mL) in test [15]; more than 31.8 µM in test [16]; more than 31.8 µM in test [17]; 31.8 µM (≈ 50 µg/mL) in test [18]. The compound further came in with an MIC in [19] of more than 31.8 µM.
In the case of `NCCCC[C@H](NC(=O)[C@@H](N)CCCCN)C(=O)N[C@@H](CCCN=C(N)N)C(=O)N[C@@H](Cc1c[nH]c2ccccc12)C(=O)N[C@@H](Cc1c[nH]c2ccccc12)C(=O)N[C@@H](Cc1c[nH]c2ccccc12)C(=O)N[C@@H](Cc1c[nH]c2ccccc12)C(=O)N[C@@H](Cc1c[nH]c2ccccc12)C(=O)N[C@@H](CCCN=C(N)N)C(=O)O` [KKRWWWWWR], the MIC in test [1] worked out at 1.32 µM (≈ 2 µg/mL); in test [2] it was 2.64 µM (≈ 4 µg/mL); in test [3], 5.27 µM (≈ 8 µg/mL); in test [4], 2.64 µM (≈ 4 µg/mL); in test [5] it was 21.1 µM (≈ 32 µg/mL); in test [6], 2.64 µM (≈ 4 µg/mL). Moreover, the MIC in test [7] is 5.27 µM (≈ 8 µg/mL); in test [8] it was 21.1 µM (≈ 32 µg/mL).
As for `CC[C@H](C)[C@H](NC(=O)[C@H](CCCCN)NC(=O)[C@@H](NC(=O)[C@H](CCC(N)=O)NC(=O)[C@@H](N)CCCN=C(N)N)[C@@H](C)CC)C(=O)N[C@@H](CCCN=C(N)N)C(=O)N[C@@H](CCCN=C(N)N)C(=O)N[C@@H](CCSC)C(=O)N[C@@H](CCCCN)C(=O)N[C@@H](Cc1c[nH]c2ccccc12)C(=O)N[C@@H](CCCN=C(N)N)C(N)=O` [RQIKIRRMKWR], the MIC in test [13] is 31.8 µM (≈ 50 µg/mL); in test [14], more than 31.8 µM; in test [15], 3.98 µM (≈ 6.25 µg/mL); in test [16], 7.96 µM (≈ 12.5 µg/mL); in test [17], 31.8 µM (≈ 50 µg/mL); in test [18] it was 3.18 µM (≈ 5 µg/mL). In test [19], this compound showed an MIC of 3.56 µM (≈ 5.59 µg/mL).
As for `CC[C@H](C)[C@H](NC(=O)[C@H](CC(N)=O)NC(=O)[C@H](CCCN=C(N)N)NC(=O)[C@H](CCC(N)=O)NC(=O)[C@H](Cc1c[nH]c2ccccc12)NC(=O)[C@H](Cc1ccccc1)NC(=O)[C@@H](N)CCCN=C(N)N)C(=O)N[C@@H](CCCN=C(N)N)C(=O)N[C@@H](CCCCN)C(=O)N[C@@H](Cc1ccc(O)cc1)C(=O)N[C@@H](CCCN=C(N)N)C(N)=O` [RFWQRNIRKYR], the MIC in test [9] is not below 154 µM.

Values taken from DBAASP.
